Assay results from paper PMC5041982, “Small-molecule inhibition of STAT3 in radioresistant head and neck squamous cell carcinoma” (Oncotarget, 2016).
Where two headings read alike, the source gives them in different places.

Columns and labels:
[1] = biological target: T1, STAT3 (Homo sapiens, UniProt P40763); assay: STAT3/pY-peptide binding surface plasmon resonance (SPR) assay; conditions: for Inhibition of STAT3 binding to pY-peptide compared with C188: SPR; for IC50: STAT3 200 nM, EGFR pY1068 dodecapeptide, mean, n ≥ 2, read-out: pY-Peptide Binding (SPR) IC50
T1 sequence (P40763 whole entry, species assumed): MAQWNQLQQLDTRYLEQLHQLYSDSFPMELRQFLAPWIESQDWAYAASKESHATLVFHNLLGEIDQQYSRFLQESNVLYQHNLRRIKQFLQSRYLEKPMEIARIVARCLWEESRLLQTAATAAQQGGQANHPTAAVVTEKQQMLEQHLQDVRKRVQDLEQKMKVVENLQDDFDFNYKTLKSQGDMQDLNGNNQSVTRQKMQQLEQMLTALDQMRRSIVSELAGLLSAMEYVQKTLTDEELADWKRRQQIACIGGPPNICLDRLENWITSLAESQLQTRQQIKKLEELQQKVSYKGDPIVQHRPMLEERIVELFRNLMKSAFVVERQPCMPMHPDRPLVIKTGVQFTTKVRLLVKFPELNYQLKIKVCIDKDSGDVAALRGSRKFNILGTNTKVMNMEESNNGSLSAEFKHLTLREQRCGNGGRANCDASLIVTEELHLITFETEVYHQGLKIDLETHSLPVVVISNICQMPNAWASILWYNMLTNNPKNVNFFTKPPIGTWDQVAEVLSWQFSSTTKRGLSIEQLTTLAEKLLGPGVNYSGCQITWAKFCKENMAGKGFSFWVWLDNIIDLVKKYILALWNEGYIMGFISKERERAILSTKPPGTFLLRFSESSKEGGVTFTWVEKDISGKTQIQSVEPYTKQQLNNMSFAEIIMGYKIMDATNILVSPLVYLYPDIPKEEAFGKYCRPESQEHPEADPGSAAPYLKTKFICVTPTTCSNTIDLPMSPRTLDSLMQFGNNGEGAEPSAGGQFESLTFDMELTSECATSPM
Description: The equilibrium binding levels obtained ± compound were normalized (resonance obtained in the presence of compound ÷ the resonance obtained in the absence of compound × 100) and plotted against Log [nM] […] B. Inhibition of ligand-stimulated STAT phosphorylation, measured by phosphoflow. Serum-starved (1 hour) Kasumi-1 cells, pre-incubated with compound/DMSO (1 hour), were treated with G-CSF (10 ng/ml, 15 min, left two panels) or IFN-γ (10ng/ml, 15 min, right panel). Cells were permeabilized and stained with Alexa647-pSTAT3, and PE-pSTAT1 antibodies and analyzed on BD LSR2. FCS files were uploaded to Cytobank for pSTAT3 and pSTAT1 quantitation. Histograms depicting pSTAT3 and pSTAT1 levels are shown. C. Mean fluorescence (pSTAT3/1) levels were plotted as function the Log [M] compound, and IC50 calculated using GraphPad. […] D. Inhibition of ligand-stimulated STAT phosphorylation, measured by Luminex. Serum-starved (1 hour) Kasumi-1 cells, pre-incubated with compound/DMSO (0/0.1/0.3/1/3/10/100 μM, 1 hour), were treated with G-CSF (10 ng/ml, 15′). Total protein extracts of cells were assayed for pSTAT3, pSTAT1, and GAPDH levels by Luminex. GAPDH-normalized pSTAT3 or pSTAT1 values were divided by this ratio for untreated cells and expressed in percentage. These values were plotted as a function of Log [M] compound, and IC50 values calculated using GraphPad. […]
3-D pharmacophore sorting used to evaluate the effect of each compound on STAT3 binding. Responses were normalized by dividing the […]
fingerprint screening were converted into 3-D structures compounds at 2 min and multiplying by 100. IC values […]
for analysis as described below. were determined by plotting % maximum response as a 3-D pharmacophore generation function of log concentration of compound and fitting the Each molecular chemical feature, including experimental points to a competitive binding model using hydrogen bond donor, hydrogen bond acceptor, positive a four parameter logistic equation: R = Rhigh − (Rhigh − R low)/ (1 + conc/A1)^A2, where R = percent response at and negative ionizable group, and hydrophobic region, inhibitor concentration, R = percent response with no was generated using the LigandScout application compound, R= percent response at highest compound high framework and projected into 3-D space. concentration, A2 = fitting parameter (slope) and A1 = low Feature-pairing IC50 (BIAevaluation Software version 4.1). The inhibition Each chemical feature was converted into distance constant (Ki) was derived from the Cheng-Prusoff bin and the complete set of distance bins used to construct equation Ki=IC50/(1+[C]/Kd) as used by Halling et al a cost matrix. The most favorable pairing based on cost where C stands for STAT3 concentration used in the SPR matrix was identified. assay and Kd denotes the dissociation constant for STAT3 3-D pharmacophore transformation binding to its phosphorylated EGFR ligand in the SPR […]
STAT3/pY-peptide binding assay and total protein extracted from cell pellets. […]
STAT3 binding assays were performed at 25 °C (Millipore, Danvers, MA) coupled to antibody against

[2] = biological target: T2, pSTAT3 (Tyr-705) (Homo sapiens, UniProt P40763); assay: Phosphoflow, G-CSF-induced STAT3 phosphorylation in Kasumi-1 cells; format: cell-based; conditions: Kasumi-1, G-CSF 10 ng/ml 15 min; mean, n ≥ 2; read-out: Ligand Induced Phosphorylation (Phosphoflow) pSTAT3 (GCSF) IC50
T2 construct: endogenous in cells; host or cells: Kasumi-1
T2 sequence (P40763 whole entry): as the sequence (P40763 whole entry, species assumed) above
Description: (§1) The equilibrium binding levels obtained ± compound were normalized (resonance obtained in the presence of compound ÷ the resonance obtained in the absence of compound × 100) and plotted against Log [nM] […] B. Inhibition of ligand-stimulated STAT phosphorylation, measured by phosphoflow. Serum-starved (1 hour) Kasumi-1 cells, pre-incubated with compound/DMSO (1 hour), were treated with G-CSF (10 ng/ml, 15 min, left two panels) or IFN-γ (10ng/ml, 15 min, right panel). Cells were permeabilized and stained with Alexa647-pSTAT3, and PE-pSTAT1 antibodies and analyzed on BD LSR2. FCS files were uploaded to Cytobank for pSTAT3 and pSTAT1 quantitation. Histograms depicting pSTAT3 and pSTAT1 levels are shown. C. Mean fluorescence (pSTAT3/1) levels were plotted as function the Log [M] compound, and IC50 calculated using GraphPad. […] D. Inhibition of ligand-stimulated STAT phosphorylation, measured by Luminex. Serum-starved (1 hour) Kasumi-1 cells, pre-incubated with compound/DMSO (0/0.1/0.3/1/3/10/100 μM, 1 hour), were treated with G-CSF (10 ng/ml, 15′). Total protein extracts of cells were assayed for pSTAT3, pSTAT1, and GAPDH levels by Luminex. GAPDH-normalized pSTAT3 or pSTAT1 values were divided by this ratio for untreated cells and expressed in percentage. These values were plotted as a function of Log [M] compound, and IC50 values calculated using GraphPad.
(§2) Phosphoflow analysis was done as described in Xu et al. Briefly, Kasumi-1 cells, were serum-starved, pre-treated with compound or DMSO (1 hour, RT) and then stimulated with 20 μl of GCSF (10 ng/ml) for 15 minutes at 37°C. The cells were then permeabilized and stained with Alexa647-pSTAT3, Alexa488-pSTAT5 and PE-pSTAT1 antibodies and analyzed using the BD LSR2. FCS files were exported and uploaded to Cytobank for determination of phosphoproteins as earlier. Gating was done on live, single cells and then gates selected for positive ligand-activated pSTAT3 and pSTAT1. IC50 values were calculated using the GraphPad Prism.

[3] = tested on: pSTAT5; assay: Phosphoflow, G-CSF-induced pSTAT5 in Kasumi-1 cells; format: cell-based; conditions: mean, n ≥ 2, read-out: Ligand Induced Phosphorylation (Phosphoflow) pSTAT5 (G-CSF) IC50
Description: as §2

[4] = biological target: T3, pSTAT1 (Tyr-701) (Homo sapiens, UniProt P42224); assay: Phosphoflow, IFN-γ-induced pSTAT1 in Kasumi-1 cells; format: cell-based; conditions: Kasumi-1, IFN-γ 10 ng/ml 15 min; mean, n ≥ 2; read-out: Ligand Induced Phosphorylation (Phosphoflow) pSTAT1 (IFN-γ) IC50
T3 construct: endogenous in cells; host or cells: Kasumi-1
T3 sequence (P42224 1-750): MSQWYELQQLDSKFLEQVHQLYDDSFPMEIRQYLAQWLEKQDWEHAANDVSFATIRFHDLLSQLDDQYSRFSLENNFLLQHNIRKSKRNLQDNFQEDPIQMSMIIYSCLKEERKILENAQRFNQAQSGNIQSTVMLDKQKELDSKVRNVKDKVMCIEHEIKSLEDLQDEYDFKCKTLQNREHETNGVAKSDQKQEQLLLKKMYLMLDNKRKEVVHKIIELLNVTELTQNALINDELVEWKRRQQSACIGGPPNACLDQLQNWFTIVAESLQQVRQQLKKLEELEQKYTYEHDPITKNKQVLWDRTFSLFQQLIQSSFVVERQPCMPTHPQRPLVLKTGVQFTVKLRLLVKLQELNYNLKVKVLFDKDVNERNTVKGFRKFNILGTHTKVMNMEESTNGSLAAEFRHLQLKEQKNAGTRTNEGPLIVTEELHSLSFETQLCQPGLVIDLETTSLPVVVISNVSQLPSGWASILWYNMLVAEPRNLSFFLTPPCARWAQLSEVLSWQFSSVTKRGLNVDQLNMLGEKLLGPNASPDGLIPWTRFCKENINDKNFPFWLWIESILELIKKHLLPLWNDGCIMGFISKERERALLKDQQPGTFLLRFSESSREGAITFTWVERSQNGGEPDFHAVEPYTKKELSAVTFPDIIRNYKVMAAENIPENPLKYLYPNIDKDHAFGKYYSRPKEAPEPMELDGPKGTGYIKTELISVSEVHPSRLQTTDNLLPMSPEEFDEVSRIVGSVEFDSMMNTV
Description: as §1, §2

[5] = tested on: normal murine bone marrow colony formation; assay: Normal murine bone marrow colony formation; format: cell-based; conditions: studies not shown (Tweardy et al 2010, unpublished)
[6] = tested on: tumor cells; conditions: read-out: IC50 killing of tumor cells; cited from earlier work
[7] = biological target: T1, STAT3; parameters: method as in PMID 24308725; conditions: read-out: IC50 inhibition of STAT3 in a luciferase reporter assay; cited from earlier work
[8] = biological target: T1, STAT3; parameters: method as in PMID 17114005; conditions: read-out: IC50 inhibition of STAT3 binding to pY-peptide; cited from earlier work
[9] = tested on: pSTAT3; conditions: read-out: IC50 inhibition of cytokine-induced pSTAT3 levels; cited from earlier work

Compound | Inhibition of STAT3 binding to pY-peptide compared with C188 [1] | IC50 [1] [µM] | IC50 [2] [µM] | IC50 [3] [µM] | IC50 [4] [µM] | Inhibition of normal murine bone marrow colony formation [5] | IC50 [6] [µM] | IC50 [7] [µM] | IC50 [8] [µM] | IC50 [9] [µM]
CC(C)OC(=O)C(C(=O)C(F)(F)F)c1cc(NS(=O)(=O)c2ccc(F)cc2)c2ccccc2c1O (stereo not drawn) [Compound C188-7] | improved inhibition | 4.7 ± 2.1 | 10.5 ± 13.4 | > 300 | 35 ± 39.6 | inhibited |  |  |  | 
CC(C)OC(=O)C(C(=O)C(F)(F)F)c1cc(NS(=O)(=O)c2ccc3c4c(cccc24)C(=O)N3)c2ccccc2c1O (stereo not drawn) [Compound C188-8] | improved inhibition | 4.5 ± 2.1 | 3.4 ± 0.9 | 23 | 35 ± 25.2 | inhibited |  |  |  | 
O=S(=O)(Nc1cc(Sc2nc[nH]n2)c(O)c2ccccc12)c1ccc(Br)cc1 [Compound C188-15] | improved inhibition | 1.5 ± 0.7 | 3.3 ± 0.2 | 12 ± 1.4 |  | inhibited |  |  |  | 
CCc1ccc(S(=O)(=O)Nc2cc3c(C(=O)OCCOC)c(C)oc3c3ccccc23)cc1 [Compound C188-22] |  | 73 ± 17 | > 300 | > 300 | > 300 |  |  |  |  | 
CC(=O)Nc1ccc(S(=O)(=O)Nc2cccc3ccccc23)cc1 [Compound C188-23] |  | > 300 | > 300 | > 300 | > 300 |  |  |  |  | 
O=S(=O)(Nc1cccc2ccccc12)c1ccc(Cl)cc1 [Compound C188-24] |  | > 300 | > 300 | > 300 | > 300 |  |  |  |  | 
CC1(C)CC(=O)c2c(oc3c2cc(NS(=O)(=O)c2ccc(Br)cc2)c2ccccc23)C1 [Compound C188-25] |  | 45 ± 8.5 | > 300 | > 300 | 17 |  |  |  |  | 
Cc1oc2c(cc(NS(=O)(=O)c3ccc(Cl)cc3)c3ccccc32)c1C(=O)OCc1ccccc1 [Compound C188-30] |  | 70.5 ± 70 | > 300 | > 300 | > 300 |  |  |  |  | 
Cc1cc(C)c(S(=O)(=O)Nc2cc(C(C(=O)OC(C)C)C(=O)C(F)(F)F)c(O)c3ccccc23)cc1C (stereo not drawn) [Compound C188-31] |  | 42 ± 7.1 | 13 | > 300 | 47 |  |  |  |  | 
Cc1ccc(S(=O)(=O)Nc2cc3sc(=O)oc3c3ccccc23)c(C)c1 [Compound C188-32] |  | 48 ± 19.8 | 7.5 ± 3.6 | > 300 | 3 |  |  |  |  | 
CC(C)(C)c1ccc(S(=O)(=O)Nc2cc3sc(=O)oc3c3ccccc23)cc1 [Compound C188-33] |  | 20 ± 4.2 | 7.9 ± 5.8 | 6 | 10 |  |  |  |  | 
Cc1cc(S(=O)(=O)Nc2cc3c4c(oc3c3ccccc23)CCCC4=O)ccc1Cl [Compound C188-34] |  | 13.5 ± 3.5 | > 300 | > 300 | > 300 |  |  |  |  | 
CC(C)(C)c1ccc(S(=O)(=O)Nc2cc3c4c(oc3c3ccccc23)CCCC4=O)cc1 [Compound C188-36] |  | 31.5 ± 7.8 | > 300 | > 300 | > 300 |  |  |  |  | 
CC(C)c1ccc(S(=O)(=O)Nc2cc3c4c(oc3c3ccccc23)CCCC4)cc1 [Compound C188-37] |  | 24.5 ± 6.4 | > 300 | > 300 | > 300 |  |  |  |  | 
O=S(=O)(Nc1ccc(O)c2ccccc12)c1cccc2cccnc12 [Compound C188-39] |  | > 300 | > 300 | > 300 | > 300 |  |  |  |  | 
NS(=O)(=O)c1cccc2c1C(=O)c1cccc(O)c1C2=O [LLL12] |  |  |  |  |  |  | ~5 |  |  | 
C[C@@H]1CC(=O)c2c(ccc3c2C(=O)c2cccc(O)c2C3=O)C1 [STA-21] |  |  |  |  |  |  |  | 12.2 to 18.7 |  | 
O=[N+]([O-])c1ccc2c(c1)S(=O)(=O)C=C2 [Stattic] |  |  |  |  |  |  |  |  | 5.1 | 
COC(=O)[C@H](Cc1cn(C)cn1)NC(=O)[C@@H](NC(=O)Nc1cc(C(F)(F)F)cc(C(F)(F)F)c1)C(C)C [XZH-5] |  |  |  |  |  |  |  |  |  | 20 to 30
